In PubChem BioAssay (NCI):
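Assay format: 96-well plates, 48-hour exposure. GI50 marks 50% less growth. The concentration for full growth arrest is given as TGI.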

Experiments:
Assay in all cases: NCI tumour cell line growth inhibition, 48 h
BT-549 breast = system: BT-549 breast
OVCAR-4 ovarian = system: OVCAR-4 ovarian
SF-539 CNS = system: SF-539 CNS
OVCAR-8 ovarian = system: OVCAR-8 ovarian
HOP-62 NSCLC = system: HOP-62 NSCLC
SNB-19 CNS = system: SNB-19 CNS
U251 CNS = system: U251 CNS
SK-MEL-5 melanoma = system: SK-MEL-5 melanoma
M14 melanoma = system: M14 melanoma
NCI-H23 lung = system: NCI-H23 lung
SW-620 colon = system: SW-620 colon
CCRF-CEM leukemia = system: CCRF-CEM leukemia
UACC-62 melanoma = system: UACC-62 melanoma
MCF7 breast = system: MCF7 breast
IGROV1 ovarian = system: IGROV1 ovarian
MDA-MB-231 breast = system: MDA-MB-231 breast
EKVX NSCLC = system: EKVX NSCLC
PC-3 prostate = system: PC-3 prostate
SK-MEL-28 melanoma = system: SK-MEL-28 melanoma
OVCAR-5 ovarian = system: OVCAR-5 ovarian
TK-10 renal = system: TK-10 renal
DU-145 prostate = system: DU-145 prostate
NCI/ADR-RES ovarian = system: NCI/ADR-RES ovarian
HS 578T breast = system: HS 578T breast
SF-268 CNS = system: SF-268 CNS
T-47D breast = system: T-47D breast
NCI-H460 lung = system: NCI-H460 lung
HCC-2998 colon = system: HCC-2998 colon
SK-OV-3 ovarian = system: SK-OV-3 ovarian
RPMI-8226 leukemia = system: RPMI-8226 leukemia
ACHN renal = system: ACHN renal
RXF 393 renal = system: RXF 393 renal
KM12 colon = system: KM12 colon
HOP-92 NSCLC = system: HOP-92 NSCLC
786-0 renal = system: 786-0 renal
SF-295 CNS = system: SF-295 CNS
LOX IMVI melanoma = system: LOX IMVI melanoma
SNB-75 CNS = system: SNB-75 CNS
A498 renal = system: A498 renal
SK-MEL-2 melanoma = system: SK-MEL-2 melanoma
MALME-3M melanoma = system: MALME-3M melanoma
MOLT-4 leukemia = system: MOLT-4 leukemia
HT29 colon = system: HT29 colon
COLO 205 colon = system: COLO 205 colon
HCT-116 colon = system: HCT-116 colon
OVCAR-3 ovarian = system: OVCAR-3 ovarian
K-562 leukemia = system: K-562 leukemia
NCI-H522 lung = system: NCI-H522 lung
SN12C renal = system: SN12C renal
UACC-257 melanoma = system: UACC-257 melanoma
UO-31 renal = system: UO-31 renal
CAKI-1 renal = system: CAKI-1 renal
A549 NSCLC = system: A549 NSCLC
NCI-H226 lung = system: NCI-H226 lung
MDA-MB-435 = system: MDA-MB-435
HL-60(TB) leukemia = system: HL-60(TB) leukemia
HCT-15 colon = system: HCT-15 colon

Clc1ccc(N2CCN(CCCN3CCN(c4cccc(Cl)c4)CC3)CC2)cc1
GI50 (BT-549 breast): 3.72 µM | TGI (BT-549 breast): 15.6 µM | GI50 (OVCAR-4 ovarian): 5.77 µM | TGI (OVCAR-4 ovarian): 20.7 µM | GI50 (SF-539 CNS): 3.21 µM | TGI (SF-539 CNS): 12.4 µM | GI50 (OVCAR-8 ovarian): 10.4 µM | TGI (OVCAR-8 ovarian): 28.1 µM | GI50 (HOP-62 NSCLC): 3.97 µM | TGI (HOP-62 NSCLC): 18.1 µM | GI50 (SNB-19 CNS): 11.3 µM | TGI (SNB-19 CNS): 24.7 µM | GI50 (U251 CNS): 5.45 µM | TGI (U251 CNS): 20.1 µM | GI50 (SK-MEL-5 melanoma): 1.6 µM | TGI (SK-MEL-5 melanoma): 3.46 µM | GI50 (M14 melanoma): 1.57 µM | TGI (M14 melanoma): 3.21 µM | GI50 (NCI-H23 lung): 3.33 µM | TGI (NCI-H23 lung): 17.8 µM | GI50 (SW-620 colon): 3.08 µM | TGI (SW-620 colon): 14 µM | GI50 (CCRF-CEM leukemia): 3.8 µM | TGI (CCRF-CEM leukemia): 25.3 µM | GI50 (UACC-62 melanoma): 2.86 µM | TGI (UACC-62 melanoma): 11.3 µM | GI50 (MCF7 breast): 2.92 µM | TGI (MCF7 breast): 12.2 µM | GI50 (IGROV1 ovarian): 8.89 µM | TGI (IGROV1 ovarian): 24.6 µM | GI50 (MDA-MB-231 breast): 4.22 µM | TGI (MDA-MB-231 breast): 18.6 µM | GI50 (EKVX NSCLC): 4.5 µM | TGI (EKVX NSCLC): 35.9 µM | GI50 (PC-3 prostate): 3.34 µM | TGI (PC-3 prostate): 16.4 µM | GI50 (SK-MEL-28 melanoma): 2.53 µM | TGI (SK-MEL-28 melanoma): 8.27 µM | GI50 (OVCAR-5 ovarian): 9.12 µM | TGI (OVCAR-5 ovarian): 29.6 µM | GI50 (TK-10 renal): 5.32 µM | TGI (TK-10 renal): 21.3 µM | GI50 (DU-145 prostate): 8.14 µM | TGI (DU-145 prostate): 21.4 µM | GI50 (NCI/ADR-RES ovarian): 4.6 µM | TGI (NCI/ADR-RES ovarian): 20.7 µM | GI50 (HS 578T breast): 4.82 µM | TGI (HS 578T breast): 22 µM | GI50 (SF-268 CNS): 7.77 µM | TGI (SF-268 CNS): 21.4 µM | GI50 (T-47D breast): 1.63 µM | TGI (T-47D breast): 14.3 µM | GI50 (NCI-H460 lung): 3.78 µM | TGI (NCI-H460 lung): 15.8 µM | GI50 (HCC-2998 colon): 2.65 µM | TGI (HCC-2998 colon): 11.7 µM | GI50 (SK-OV-3 ovarian): 10.7 µM | TGI (SK-OV-3 ovarian): 23.2 µM | GI50 (RPMI-8226 leukemia): 1.79 µM | TGI (RPMI-8226 leukemia): 7.84 µM | GI50 (ACHN renal): 7.77 µM | TGI (ACHN renal): 21.5 µM | GI50 (RXF 393 renal): 6.7 µM | TGI (RXF 393 renal): 22.4 µM | GI50 (KM12 colon): 3.45 µM | TGI (KM12 colon): 15.6 µM | GI50 (HOP-92 NSCLC): 0.813 µM | TGI (HOP-92 NSCLC): 11.4 µM | GI50 (786-0 renal): 4.63 µM | TGI (786-0 renal): 18.5 µM | GI50 (SF-295 CNS): 3.74 µM | TGI (SF-295 CNS): 19.1 µM | GI50 (LOX IMVI melanoma): 2.8 µM | TGI (LOX IMVI melanoma): 13.8 µM | GI50 (SNB-75 CNS): 2.52 µM | TGI (SNB-75 CNS): 14.8 µM | GI50 (A498 renal): 4.61 µM | TGI (A498 renal): 18.8 µM | GI50 (SK-MEL-2 melanoma): 14.3 µM | TGI (SK-MEL-2 melanoma): 31.5 µM | GI50 (MALME-3M melanoma): 2.06 µM | TGI (MALME-3M melanoma): 6.15 µM | GI50 (MOLT-4 leukemia): 2.01 µM | TGI (MOLT-4 leukemia): 17.4 µM | GI50 (HT29 colon): 3.03 µM | TGI (HT29 colon): 13.5 µM | GI50 (COLO 205 colon): 1.62 µM | TGI (COLO 205 colon): 3.35 µM | GI50 (HCT-116 colon): 2.45 µM | TGI (HCT-116 colon): 12.2 µM | GI50 (OVCAR-3 ovarian): 3.44 µM | TGI (OVCAR-3 ovarian): 15.3 µM | GI50 (K-562 leukemia): 1.45 µM | TGI (K-562 leukemia): 6.08 µM | GI50 (NCI-H522 lung): 14.7 µM | TGI (NCI-H522 lung): 34 µM | GI50 (SN12C renal): 7.51 µM | TGI (SN12C renal): 21.6 µM | GI50 (UACC-257 melanoma): 4.33 µM | TGI (UACC-257 melanoma): 16.3 µM | GI50 (UO-31 renal): 3.56 µM | TGI (UO-31 renal): 16.2 µM | GI50 (CAKI-1 renal): 7.43 µM | TGI (CAKI-1 renal): 25.6 µM | GI50 (A549 NSCLC): 8.57 µM | TGI (A549 NSCLC): 28.4 µM | GI50 (NCI-H226 lung): 6.51 µM | TGI (NCI-H226 lung): 23.3 µM | GI50 (MDA-MB-435): 3.36 µM | TGI (MDA-MB-435): 16.7 µM | GI50 (HL-60(TB) leukemia): 2.33 µM | TGI (HL-60(TB) leukemia): 6.7 µM | GI50 (HCT-15 colon): 4.9 µM | TGI (HCT-15 colon): 22.4 µM
